In test [1] the test system is A2058 human melanoma cells. Nature of the test: LPA1 chemotaxis assay. Type of test: cell-based. The following applies: LPA 100 nM, read-out: IC50, inhibition of LPA-driven chemotaxis. As to the method: Chemotaxis of the A2058 human melanoma cells was measured using the Neuroprobe ChemoTx® System plates (8 μm pore size, 5.7 mm diameter sites). The filter sites were coated with 0.001% fibronectin (Sigma) in 20 mM Hepes, pH 7.4 and allowed to dry. A2058 cells were serum-starved for 24 hours, then harvested with Cell Stripper and resuspended in DMEM containing 0.1% fatty-acid-free bovine serum albumin (BSA) to a concentration of 1×10^6/ml. Cells were mixed with an equal volume of test compound (2×) in DMEM containing 0.1% fatty-acid-free BSA and incubated at 37° C. for 15 minutes. LPA (100 nM in DMEM containing 0.1% fatty-acid-free BSA) or vehicle was added to each well of the lower chamber and 50 μl of the cell suspension/test compound mix was applied to the upper portion of the ChemoTx plate. Plates were incubated at 37° C. for three hours and then the cells removed from the upper portion by rinsing with PBS and scraping. The filter was dried then stained with HEMA 3 Staining System (Fisher Scientific). The absorbance of the filter was read at 590 nm and IC50s were determined using Symyx Assay Explorer.

The target in test [2] is T1, human LPA1 (Homo sapiens, UniProt Q92633).
T1 construct: the full-length cDNA for human LPA1 was obtained by PCR of the reverse transcription reaction; expressed in transfected cells
T1 sequence (Q92633 whole entry): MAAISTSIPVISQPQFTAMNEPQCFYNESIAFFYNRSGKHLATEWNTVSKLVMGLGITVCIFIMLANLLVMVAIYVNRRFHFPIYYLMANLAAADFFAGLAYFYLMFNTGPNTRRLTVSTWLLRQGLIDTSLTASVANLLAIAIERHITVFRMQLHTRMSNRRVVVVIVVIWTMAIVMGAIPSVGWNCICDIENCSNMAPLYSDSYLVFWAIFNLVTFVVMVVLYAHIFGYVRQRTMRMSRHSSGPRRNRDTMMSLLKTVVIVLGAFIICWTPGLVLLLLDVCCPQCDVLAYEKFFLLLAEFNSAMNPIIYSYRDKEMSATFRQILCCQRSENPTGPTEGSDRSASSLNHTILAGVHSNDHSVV
Nature of the test: LPA1 calcium flux assay. Type of test: cell-based. The following applies: human LPA1 expressing CHO cells, stimulated with 10 nM LPA; read-out: HLPA1 Ca Flux IC50. Summed up: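 CHO cells stably expressing human LPA1, serum-starved overnight and loaded with Calcium 4 dye in HBSS/20 mM Hepes/0.3% fatty-acid-free HSA, 1 h at 37 °C. Compounds pre-incubated 30 min at room temperature, then 10 nM LPA added; intracellular Ca2+ flux measured and IC50 from titration curves.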
(A change in cytosolic calcium serves as a functional read-out for many receptors and channels.)

The test system of test [3] is bleomycin-induced lung fibrosis. Put plainly: Bleomycin-induced lung fibrosis model in mice. The class given is in vivo, mouse. The following applies: acute setting (3 day). The text has this: Bleomycin-induced Lung Fibrosis Model in Mice Female CD-1 mice (Harlan, 25-30 g) are housed 4 per cage, given free access to food and water and allowed to acclimate for at least 7 days prior to test initiation. After the habituation phase, mice are lightly anesthetized with isoflurane (5% in 100% O2) and administered with bleomycin sulfate (0.01-5 U/kg, Henry Schein) via intratracheal instillation (Cuzzocrea S et al. Am J Physiol Lung Cell Mol Physiol. 2007 May; 292(5):[…]-104. Epub 2007 Jan. 12.). Mice are returned to their cages and monitored daily for the duration of the experiment. Test compound or vehicle is delivered po, ip or sc daily. The route and frequency of dosing is based on previously determined pharmacokinetic properties. […] BALF is analyzed for concentrations of inflammatory, pro-fibrotic and tissue injury biomarkers including transforming growth factor β1, hyaluronic acid, tissue inhibitor of metalloproteinase-1, matrix matelloproteinase-7, connective tissue growth factor and lactate dehydrogenase activity, using commercially available ELISA. […] Total cell counts are then obtained using a Hemavet hematology system (Drew Scientific, Wayne, Pa.) and differential cells counts are determined using Shandon cytospin (Thermo Scientific, Waltham, Mass.). […] The data are plotted using Graphpad prism and statistical differences between groups determined.

The test system of test [4] is nerve-injured mice. The conditions noted are these: pretreatment; cited from earlier work.
In test [5] the test system is renal fibrosis, unilateral ureteral obstruction (UUO). The conditions noted are these: UUO mice; cited from earlier work.
The test system of test [6] is mouse epithelial renal cell line, MCT. The following applies: co-treatment with LPA, MCT cells; cited from earlier work.
Test [7] concerns human foetal lung fibroblasts. The conditions noted are these: cited from earlier work.
Test [8] concerns pancreatic cancer cell lines. The conditions noted are these: cited from earlier work.

`Cc1noc(-c2ccc(-c3ccc(C4(C(=O)O)CC4)cc3)cc2)c1C(O)c1cn(Cc2ccccc2)nn1` (single isomer, unassigned) [Compound 1-41, 1-(4′-{4-[(1-Benzyl-1H-[1,2,3]triazol-4-yl)-hydroxy-methyl]-3-methyl-isoxazol-5-yl}-biphenyl-4-yl)-cyclopropanecarboxylic acid]: the IC50 (usually the midpoint of a concentration-inhibition curve) in test [1] is under 100 nM. Further, the IC50 in test [2] was under 300 nM. Also, in test [3], the “collagen concentration in broncheoalveolar lavage fluid (BALF)” value is “significantly reduced” and the “total protein concentration in broncheoalveolar lavage fluid (BALF)” value is given as “significantly reduced”.
Regarding `C[C@@H](N)[C@H]1CC[C@H](C(=O)Nc2ccncc2)CC1` [Compound Y-27632], the allodynia and hyperalgesia entry in test [4] is reported as “completely abolished”.
On to `Cc1noc(-c2ccc(CSCCC(=O)O)cc2)c1NC(=O)OC(C)c1ccccc1Cl` (stereo not shown) [Ki16425], for which the “development of renal fibrosis” value in test [5] is “closely resembled the LPA1 (−/−) mice”. Further, in test [6], the “LPA-induced increase in expression of the profibrotic cytokine CTGF” value was “almost completely suppressed”. For the same compound, in test [7], the “chemotaxis of human foetal lung fibroblasts induced by BAL from IPF patients” value is “blocked”. Moreover, in test [8] (highly peritoneal metastatic pancreatic cancer cell line), the “LPA-induced and ascites-induced invasion activity” value is recorded as “blocked”. The “in vitro migration in response to LPA and peritoneal fluid (ascites) from pancreatic cancer patients” value in test [8] (pancreatic cancer cell lines) is given as “effectively blocked”.

Values taken from US8664220B2, “Polycyclic compounds as lysophosphatidic acid receptor antagonists” (Amira Pharmaceuticals, Inc., priority 2009, dated 2014).
